Assay results taken from US11034654B2, “2,3-dihydroisoindole-1-carboxamides useful as ROR-gamma modulators” (AstraZeneca AB, priority 2017, dated 2021).

Experiments:
[1] = biological target: T1, RORγ ligand binding domain (Homo sapiens, UniProt P51449); test: RORγ radioligand competition binding assay (SPA); details: competition with tritiated 2-(4-(ethylsulfonyl)phenyl)-N-(4-(2-(methoxymethyl)phenyl)thiophen-2-yl)acetamide (25 nM), hRORγ LBD
From the text: RORγ Radioligand Competition Binding Assay The aim of this assay is to identify compounds which bind to the RORγ ligand binding domain, by competing with tritiated 2-(4-(ethylsulfonyl)phenyl)-N-(4-(2-(methoxymethyl)phenyl)thiophen-2-yl)acetamide. Human RORγ (Ligand Binding Domain (RORγ LBD) was expressed in E. coli (BL21DE3 Star) as a fusion protein: N-6×HN-Avi-GST-TCS-hRORγ LBD (S258-K518) subcloned into pET24a(+). The LBD (258-518) is underlined in the protein sequence: The scintillation proximity assay (SPA) was run in white polystyrene flat-bottom 384-well plates (Greiner, cat. No. 781075). Assays were carried out in 40 μl reaction volumes. Various concentrations of test ligands in 0.4 microlitres of DMSO were added to assay plates using an acoustic liquid dispenser. 4 nM purified N-(HN)6-GST-TCS-hRORγ (258-518) was mixed with 40 micrograms Yttrium oxide (YOx) glutathione SPA imaging beads in assay buffer (20 mM Tris, 150 mM NaCl, 10% Glycerol, 0.25% CHAPS, 1 mM TCEP) prior to adding 30 microlitres to test ligands. Assay plates were incubated for one hour at room temperature before adding 10 microlitres tritiated 2-(4-(ethylsulfonyl)phenyl)-N-(4-(2-(methoxymethyl)phenyl)thiophen-2-yl)acetamide to test plates in assay buffer (final concentration, 25 nM). Test plates were incubated for 16 hours and read using a LEADseeker Multimodality imaging instrument. The raw data was analysed and IC50 and Ki values for the compounds were calculated using Genedata Screener software. Raw data was transformed to % effect using equation 1: Compound % effect=100*[(X−min)/(max−min)], where X represents the normalized value for the compound based on the Min (vehicle) and Max (reference compound) inhibition controls. The concentration of test ligand that inhibited radioligand binding by 50% (i.e., the IC50) was calculated by plotting the % effect versus test ligand concentration and fitting the data using the Genedata Screener Smart fit algorithm. Ki is calculated from the IC50 value using the equation Ki=IC50/1+[L]/Kd) where [L]=25 nmol/L and Kd=17 nmol/L

human TH17 cells = test: Inhibition of IL-17 release from human TH17 cells; format: cell-based; details: 96 h; isolated human TH17 cells cultured 4 days, IL-17A in supernatant by HTRF; read-out: pIC50 IL-17 release (converted)
From the text: Inhibition of IL-17 Release from Human TH17 Cells
This test is designed to screen compounds for their inhibitory effect on the release of IL-17 from isolated and cultured human TH17 cells.
Peripheral blood mononuclear cells (PBMC) were isolated from heparin treated human whole blood from healthy donors by density gradient centrifugation. TH17 cells (CD4+CXCR3−CCR6+) were enriched using a human TH17 Cell Enrichment Kit (Stemcell Technologies) according to the manufacturer's protocol. The isolated TH17 cells were activated with aCD3aCD28 beads (MACS Miltenyi) and cultured in X-Vivo15 medium (Lonza) supplemented with L-glutamine, β-mercaptoethanol and a cytokine cocktail consisting of; IL-2, IL-23, IL-1β, IL-6, TGF-β. Cells were seeded at 8000 cells/well in a 384-plate (Corning, #3707) in the presence of compounds or DMSO and cultured for 4 days (37° C., 5% CO2). On day 4 supernatants were collected and IL-17A was measured using a Human IL-17 HTRF Assay kit (Cisbio Bioassays) according to the manufacturer's protocol. The IC50 values for the tested compounds was calculated using Genedata Screener® software (Genedata) using the following calculation method; Compound % effect=100*[(X−min)/(max−min)], where X represents the normalized value for the compound based on the Min (DMSO) and Max (compound 3-(1,3-benzodioxol-5-yl)-1-(3,5-dimethylpiperidin-1-yl)-3-(2-hydroxy-4,6-dimethoxyphenyl)propan-1-one at 10 μM, described in J. R. Hu et al. ACS Med. Chem. Lett. 2013, 4, 79-84) inhibition controls. Results

[2] = biological target: T1, RORγ ligand binding domain; test: RORγ co-factor recruitment assay (FRET); format: biochemical; set-up: made in house; host or cells: E. coli BL21DE3 Star; details: inhibition of recruitment of SRC-1 peptide (NCOA1_677-700) to hRORγ LBD, HTRF read-out
From the text: RORγ Co-Factor Recruitment Assay A high throughput coactivator binding assay for the identification of inverse agonists of the recruitment of peptide SRC-1 (NCOA1_677-_700) to the RORγ ligand binding domain was established. The ligand binding domain (LBD) of human RORγ was expressed in E. coli (BL21DE3 Star) as a fusion protein: N-6×HN-MBP-Avi-TCS-hRORγLBD(P260-K518) subcloned into pET24a(+). The LBD (P260-K518) is underlined in the protein sequence: The assay was run in black 384 well plates (Greiner cat no: 784900). Various concentrations of test ligands in 0.1 microlitres DMSO were dispensed to assay plates using an Echo acoustic dispenser. Two pre-mixes were prepared and incubated for 1 h at room temp in the dark. Pre-mix 1 comprised 100 nM Protein (Biotinylated HN-Avi-MBP-TCS-hRORγ (258-518)) and 60 nM Streptavidin APC in assay buffer, 50 mM MOPS pH7.4, 50 mM KF, 0.003% (w/v) CHAPS, 10 mM DTT and 0.01% (w/v) BSA and pre-mix 2 comprised 160 nM biotinylated SRC-1 peptide (NCOA1-677-700) and 20 nM Europium-W8044 labelled Streptavidin in assay buffer. Five microlitres of pre-mix 2 was dispensed to assay plates containing 0.1 microlitres of test compound and was incubated for 15 min prior to adding five microlitres of pre-mix 1. Plates were incubated at rt for 1 hour in the dark, prior to reading in a Pherastar multi-mode plate reader using HTRF filter set (ex 320, em 612 and 665). The FRET signal at 665 nm was divided by the signal at 612 nm and multiplied by 10,000 to generate a signal ratio value for each well. The raw data was transformed to % effect using the equation: Compound % effect=100*[(X−min)/(max−min)], where X represents the normalized value for the compound based on the Min (vehicle) and Max (reference compound) inhibition control. The concentration of test ligand that inhibited the activity by 50% (i.e., the IC50) was calculated by plotting the % effect versus test ligand concentration and fitting the data using the Genedata Screener Smart fit algorithm.

Row | SMILES | IC50 [1] | IC50 (human TH17 cells) | IC50 [2]
1 | CC(=O)N1Cc2cc(S(C)(=O)=O)ccc2C1C(=O)Nc1ccc(C(NC2COC2)(C(F)(F)F)C(F)(F)F)cc1 (stereo not drawn) [Example 19, 2-Acetyl-N-{4-[1,1,1,3,3,3-hexafluoro-2-(oxetan-3-ylamino)propan-2-yl]phenyl}-5-(methylsulfonyl)-2,3-dihydro-1H-isoindole-1-carboxamide] | 126 nM | 50.1 nM | 100 nM
2 | COC1(C(=O)N2Cc3cc(S(C)(=O)=O)ccc3C2C(=O)Nc2ccc(C(C#N)(C(F)(F)F)C(F)(F)F)cc2)CC1 (stereo not drawn) [Example 3, N-[4-(2-Cyano-1,1,1,3,3,3-hexafluoropropan-2-yl)phenyl]-2-[(1-methoxycyclopropyl)carbonyl]-5-(methylsulfonyl)-2,3-dihydro-1H-isoindole-1-carboxamide] | 20 nM | 15.8 nM | 251 nM
3 | COC(=O)CC(c1ccc(NC(=O)C2c3ccc(S(C)(=O)=O)cc3CN2C(C)=O)cc1)(C(F)(F)F)C(F)(F)F (stereo not drawn) [Example 32, Methyl 3-[4-({[2-acetyl-5-(methylsulfonyl)-2,3-dihydro-1H-isoindol-1-yl]carbonyl}amino)phenyl]-4,4,4-trifluoro-3-(trifluoromethyl)butanoate] | 25.1 nM | 15.8 nM | 50.1 nM
4 | CC(=O)N1Cc2cc(S(C)(=O)=O)ccc2C1C(=O)Nc1ccc(C(NC2CCOCC2)(C(F)(F)F)C(F)(F)F)cc1 (stereo not drawn) [Example 20, 2-Acetyl-N-{4-[1,1,1,3,3,3-hexafluoro-2-(tetrahydro-2H-pyran-4-ylamino)propan-2-yl]phenyl}-5-(methylsulfonyl)-2,3-dihydro-1H-isoindole-1-carboxamide] | 100 nM | 50.1 nM | 100 nM
5 | COCCNC(c1ccc(NC(=O)C2c3ccc(S(C)(=O)=O)cc3CN2C(C)=O)cc1)(C(F)(F)F)C(F)(F)F (stereo not drawn) [Example 17, 2-Acetyl-N-(4-{1,1,1,3,3,3-hexafluoro-2-[(2-methoxyethyl)amino]propan-2-yl}phenyl)-5-(methylsulfonyl)-2,3-dihydro-1H-isoindole-1-carboxamide] | 31.6 nM | 20 nM | 100 nM
6 | CC(=O)N1Cc2cc(S(C)(=O)=O)ccc2C1C(=O)Nc1ccc(C(Cc2nc(C)no2)(C(F)(F)F)C(F)(F)F)cc1 (stereo not drawn) [Example 34, 2-Acetyl-N-(4-{1,1,1,3,3,3-hexafluoro-2-[(3-methyl-1,2,4-oxadiazol-5-yl)methyl]propan-2-yl}phenyl)-5-(methylsulfonyl)-2,3-dihydro-1H-isoindole-1-carboxamide] | 20 nM | 20 nM | 126 nM
7 | CC(=O)NCCC(c1ccc(NC(=O)C2c3ccc(S(C)(=O)=O)cc3CN2C(C)=O)cc1)(C(F)(F)F)C(F)(F)F (stereo not drawn) [Example 45, 2-Acetyl-N-{4-[4-(acetylamino)-1,1,1-trifluoro-2-(trifluoromethyl)butan-2-yl]phenyl}-5-(methylsulfonyl)-2,3-dihydro-1H-isoindole-1-carboxamide] | 794 nM | 3160 nM | 200 nM
8 | CS(=O)(=O)c1ccc2c(c1)CNC2C(=O)Nc1ccc(C(C#N)(C(F)(F)F)C(F)(F)F)cc1 (stereo not drawn) [Example 1, N-[4-(2-Cyano-1,1,1,3,3,3-hexafluoropropan-2-yl)phenyl]-5-(methylsulfonyl)-2,3-dihydro-1H-isoindole-1-carboxamide] | 200 nM | 100 nM | 126 nM
9 | CC(=O)N1Cc2cc(S(C)(=O)=O)ccc2C1C(=O)Nc1ccc(C(N2CCCC2)(C(F)(F)F)C(F)(F)F)cc1 (stereo not drawn) [Example 15, 2-Acetyl-N-{4-[1,1,1,3,3,3-hexafluoro-2-(pyrrolidin-1-yl)propan-2-yl]phenyl}-5-(methylsulfonyl)-2,3-dihydro-1H-isoindole-1-carboxamide] | 5.01 nM | 3.98 nM | 39.8 nM

More lines, in order of falling IC50 [1], values ahead:

Row | IC50 [1] | IC50 (human TH17 cells) | IC50 [2] | SMILES
10 | 794 nM | 794 nM | 316 nM | CC(=O)N1Cc2cc(S(C)(=O)=O)ccc2C1C(=O)Nc1ccc(C(CC(=O)N(C)C)(C(F)(F)F)C(F)(F)F)cc1 (stereo not drawn) [Example 42, 2-Acetyl-N-{4-[4-(dimethylamino)-1,1,1-trifluoro-4-oxo-2-(trifluoromethyl)butan-2-yl]phenyl}-5-(methylsulfonyl)-2,3-dihydro-1H-isoindole-1-carboxamide]
11 | 50.1 nM | 25.1 nM | 200 nM | COC1(CNC(c2ccc(NC(=O)C3c4ccc(S(C)(=O)=O)cc4CN3C(C)=O)cc2)(C(F)(F)F)C(F)(F)F)CC1 (stereo not drawn) [Example 18, 2-Acetyl-N-[4-(1,1,1,3,3,3-hexafluoro-2-{[(1-methoxycyclopropyl)methyl]amino}propan-2-yl)phenyl]-5-(methylsulfonyl)-2,3-dihydro-1H-isoindole-1-carboxamide]
12 | 12.6 nM | 7.94 nM | 63.1 nM | CNC(=O)N1Cc2cc(S(C)(=O)=O)ccc2C1C(=O)Nc1ccc(C(C#N)(C(F)(F)F)C(F)(F)F)cc1 (stereo not drawn) [Example 4, N^1-[4-(2-Cyano-1,1,1,3,3,3-hexafluoropropan-2-yl)phenyl]-N^2-methyl-5-(methylsulfonyl)-1,3-dihydro-2H-isoindole-1,2-dicarboxamide]
13 | 10 nM | 6.31 nM | 39.8 nM | CC(=O)N1Cc2cc(S(C)(=O)=O)ccc2C1C(=O)Nc1ccc(C(CCF)(C(F)(F)F)C(F)(F)F)cc1 (stereo not drawn) [Example 35, 2-Acetyl-5-(methylsulfonyl)-N-{4-[1,1,1,4-tetrafluoro-2-(trifluoromethyl)butan-2-yl]phenyl}-2,3-dihydro-1H-isoindole-1-carboxamide]
